Source: publication PMC10858199, “Amyloid-β aggregates activate peripheral monocytes in mild cognitive impairment” (Nature Communications, 2024)

Experiments:
iPSC-derived microglia = experiment: Lysosomal activity of iPSC-derived microglia (LysoTracker); assay type: cell-based, human; details: Aβ 5 µg/mL, 60 min, 37 °C
Experimental: (§2) For microglial differentiation, the human induced pluripotent stem cell (iPSC) line BIHi043A-XM001 was used[56]. Cells were cultured on Matrigel™ (cat. no. 356234, Corning)-coated culture plates in Essential 8™ Flex Medium (cat. no. A2858501, Gibco). The culture medium was changed daily, and cells were passaged in clusters every 3–4 days at a density of 80% using 0.5 mM EDTA/PBS. iPSCs were differentiated into microglia using the protocol described[72]. First, iPSCs were differentiated into hematopoietic progenitors (HP) using STEMdiff™ Hematopoietic Kit (cat. No. 05310, Stem Cell Technologies). On Day −1, iPSCs with a 70–80% density were passaged with ReLeSR™ (cat. no. 05872, Stem Cell Technologies) into E8 flex containing Matrigel-coated 6-well plates. Clusters of 100 cells were seeded at the desired density of 50–100 per well. At Day 0, in wells with 40–80 clusters, the E8 flex medium was replaced with 2 mL medium A. On Day 2, 1 mL of medium A was added to the well. On Day 3, the medium was removed and replaced with 2 mL Medium B. On Days 5, 7, and 9, 1 mL of medium B was added to the well. […] The adherent cells were gently washed off to increase the yield using a 5 mL serological pipette. […] On Days 13, 15, 17, 19, and 21, 1 mL of microglia differentiation medium was added to the well. […] On Days 38–42, the microglia were ready for functional studies. […]

CR3 I-domain = experiment: SPR, CR3 I domain binding to immobilized Aβ or iC3b; parameters: species or system human; details: pH 7.4, 1 mM MgCl2; EVILFIT 2D distribution
Experimental: (§1) SPR assays were performed using CM-4 chips (cat no. 50-105-5323, Cytiva) and run in the BIAcore 3000 instrument (GE Health Care). As described, the chip surfaces were coupled with monomeric Aβ, aggregated Aβ, or iC3b using an amine-coupling chemistry method. A reference surface was prepared by coupling the surfaces with ethanolamine rather than protein. The CR3 and CR4 I domains were stabilized in the activated conformation by mutation of a C-terminal isoleucine residue to glycine and prepared as described earlier. […] The prepared solutions were injected over the surfaces; the contact time (tc) was 180 s, and the following dissociation phase time was 400 s. […] The distribution P (kd, KD) was calculated using the discretization of the equation:1 STotal=∫KDminKDmax∫koffminkoffmaxSkoff,KD,canalyte,tPkoff,KDdkoffdKD where S is the SPR signal. […] This was done through a global fit to the association and dissociation traces at the analyte concentrations (canalyte) mentioned above. The algorithm used Tikhonov regularization as described[44] at a confidence level of p = 0.95 to determine the most parsimonious distribution consistent with the data, showing only features essential to fit the data.

CR3 (CD11b) = CR3 (CD11b) surface expression on iPSC-derived microglia; assay type: cell-based, human; details: Aβ 5 µg/mL, 60 min, 37 °C
Experimental: as §2

CR4 I-domain = biological target: T1, CR4 I-domain (Homo sapiens, UniProt P20702, I333G); experiment: SPR, CR4 I domain binding to immobilized Aβ or iC3b; details: even at high concentrations of the CR4 I-domain (up to 10000 nM)
T1 construct: made in house
T1 sequence (P20702 165-339 I333G limits assumed): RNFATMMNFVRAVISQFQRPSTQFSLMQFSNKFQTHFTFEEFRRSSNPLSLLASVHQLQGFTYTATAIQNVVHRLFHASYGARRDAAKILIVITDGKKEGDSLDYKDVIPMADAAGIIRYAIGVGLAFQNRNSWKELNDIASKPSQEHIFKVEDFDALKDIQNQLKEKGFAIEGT
Experimental: as §1

Aβ = experiment: FDM-NTA of synthetic Aβ in PBS, QD-antibody conjugates; assay type: binding, human; details: PBS pH 7.4; detected by aducanumab biosimilar; A-Aβ value on average
Experimental: QD Ab (Ab) coupling was performed using SiteClick Qdot 655 Ab Labeling Kit (no. S10453; Molecular Probes) according to manufactures instructions. In brief, Ab, either “Aducanumab biosimilar” human IgG1,κ to aggregated Aβ (cat. no. PX-TA1335, lot. no. 040721-A01, ProteoGenix), or “Isotype control” human IgG1,κ (cat.no. HG1K, lot.no. MA14OC2803, SinoBiologicals) was concentrated in Ab preparation buffer to a concentration of 2 mg/mL or above. The buffer was simultaneously changed to 0.05 M Tris, pH 7.0. Next, carbohydrates on the Ab were modified by incubation with β-galactosidase for 4 h at 37 °C. […]
Samples for NTA were analyzed using a NanoSight NS300 system (Malvern Panalytical). The system was configured with a 405-nm laser, a high-sensitivity scientific complementary metal–oxide–semiconductor Orca Flash 2.8/Hamamatsu C11440 camera (Malvern Panalytical), a syringe pump, and for fluorescence measurements, a 650-nm long-pass filter was used. […] The videos were collected and analyzed using NanoSight software (version 3.3 and 3.4 with a concentration upgrade; Malvern). […] The camera level was set for both scattering and fluorescence mode to a maximum of 16. […] Only samples analyzed with the same detection threshold were compared. Pure protein was analyzed in PBS/EDTA with and without a 1:20,000 dilution of anti-Aβ (Aducanumab bios.) or isotype-matched Ab-QD reporters. […]

CR4 (CD11c) = CR4 (CD11c) surface expression on iPSC-derived microglia; assay type: cell-based, human; details: Aβ 5 µg/mL, 60 min, 37 °C
Experimental: as §2

## M-Aβ: Unaggregated and mainly monomeric synthetic human Aβ
iPSC-derived microglia
  Lysosomal activity of iMGs: no such ability
CR3 I-domain
  Kd: ~79 µM
  koff: 0.11 s⁻¹
CR3 (CD11b)
  CD11b (CR3) surface expression: not affected
CR4 I-domain
  Interaction with CR4 I-domain: no interaction
Aβ
  Particles above 600 nm: less than 0.5 × 10^6 particles/mL
CR4 (CD11c)
  CD11c (CR4) surface expression: KIM127 Ab did not influence the CD11c expression
